In US11578079B2, “SUMO inhibitor compounds and uses thereof” (CITY OF HOPE, priority 2018, dated 2023):
One block for each compound: values may come before it.

Molecular target: T1, SUMO (Homo sapiens, UniProt Q9UBT2)
T1 sequence (Q9UBT2 1-640): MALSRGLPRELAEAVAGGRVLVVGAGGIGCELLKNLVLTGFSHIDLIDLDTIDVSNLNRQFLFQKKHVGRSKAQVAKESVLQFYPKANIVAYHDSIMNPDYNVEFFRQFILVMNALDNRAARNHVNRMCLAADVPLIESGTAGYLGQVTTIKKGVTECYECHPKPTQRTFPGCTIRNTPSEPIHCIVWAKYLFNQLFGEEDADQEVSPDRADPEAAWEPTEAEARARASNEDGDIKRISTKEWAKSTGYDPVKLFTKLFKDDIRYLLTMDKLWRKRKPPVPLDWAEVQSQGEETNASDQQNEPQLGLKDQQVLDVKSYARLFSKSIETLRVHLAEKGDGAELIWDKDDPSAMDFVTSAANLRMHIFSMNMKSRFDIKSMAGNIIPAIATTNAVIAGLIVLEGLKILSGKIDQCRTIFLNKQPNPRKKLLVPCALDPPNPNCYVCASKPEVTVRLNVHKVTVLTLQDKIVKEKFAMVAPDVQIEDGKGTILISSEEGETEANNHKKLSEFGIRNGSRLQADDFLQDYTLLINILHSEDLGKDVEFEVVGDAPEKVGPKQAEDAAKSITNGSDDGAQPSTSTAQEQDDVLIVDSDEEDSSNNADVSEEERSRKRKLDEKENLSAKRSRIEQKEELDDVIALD
T1 sequence (Q9UBE0 1-346 partner): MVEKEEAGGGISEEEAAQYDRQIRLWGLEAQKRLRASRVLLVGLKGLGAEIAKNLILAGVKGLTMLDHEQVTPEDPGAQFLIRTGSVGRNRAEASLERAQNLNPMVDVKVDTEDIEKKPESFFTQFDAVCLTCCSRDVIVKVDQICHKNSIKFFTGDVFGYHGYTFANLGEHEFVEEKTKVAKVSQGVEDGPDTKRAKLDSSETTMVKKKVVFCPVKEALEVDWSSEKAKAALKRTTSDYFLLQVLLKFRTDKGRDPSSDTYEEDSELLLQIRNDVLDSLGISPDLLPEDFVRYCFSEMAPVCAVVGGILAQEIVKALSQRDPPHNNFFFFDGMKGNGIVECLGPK
Assay: SUMO activity (Table I, biological activities)
Assay type: biochemical
Set-up: key: + (less active); ++ (active); +++ (most active)

SMILES: COC(=O)C1=C(C(=O)Nc2ccc(C)c(F)c2)C2C=CC1(C1OCCO1)O2 (stereo not drawn) [Compound 485]
SUMO: +

SMILES: COC(=O)C1=C(C(=O)OC)C2(C(Oc3ccccc3)c3ccc(CN4CCOCC4)cc3)C=CC1O2 (stereo not drawn) [Compound 495]
SUMO: ++

SMILES: COC(=O)C1=C(C(=O)OC)C2(C(Cc3ccccc3)Oc3cccc(CO)c3)C=CC1O2 (stereo not drawn) [Compound 520]
SUMO: ++

SMILES: Cc1ccc(S(=O)(=O)C2=CC3(C(Cc4ccccc4)Nc4ccccc4)C=CC2(C)O3)cc1 (stereo not drawn) [Compound 532]
SUMO: +

SMILES: COC(=O)C1=C(C(=O)NCCNC(=O)OC(C)(C)C)C2C=CC1(C(Cc1ccccc1)Nc1ccc(F)cc1)O2 (stereo not drawn) [Compound 539]
SUMO: ++

SMILES: CCOC(=O)C1=C(C(=O)Nc2cccc(F)c2C)C2C=CC1(C(Nc1ccccc1)c1ccc(CN3CCOCC3)cc1)O2 (stereo not drawn) [Compound 603]
SUMO: ++

SMILES: CCC12C=CC(C(Cc3ccccc3)Nc3ccccc3)(O1)C(C(=O)OC)=C2C(=O)OC (stereo not drawn) [Compound 629]
SUMO: ++

SMILES: COC(=O)C1=C(C(=O)OC)C2(C(Nc3ccccc3)c3ccc4ccccc4c3)C=CC1O2 (stereo not drawn) [Compound 632]
SUMO: +++

SMILES: COC(=O)C1=C(C(=O)OC)C2(C(Nc3ccccc3)c3cccc4ccccc34)C=CC1O2 (stereo not drawn) [Compound 637]
SUMO: +++

SMILES: COC(=O)C1=C(C(=O)OC)C2(C(Cc3ccc(OCC(C)C)cc3)Nc3ccccc3)C=CC1O2 (stereo not drawn) [Compound 651]
SUMO: ++

SMILES: COC(=O)C1=C(C(=O)OC)C2(C(Nc3ccccc3)c3ccc4cc(OC)ccc4c3)C=CC1O2 (stereo not drawn) [Compound 653]
SUMO: ++

SMILES: COC(=O)C1=C(C(=O)OC)C2(C(Nc3ccccc3)c3ccc4ccc(OC)cc4c3)C=CC1O2 (stereo not drawn) [Compound 654]
SUMO: ++

SMILES: CCOC(=O)C1=C(C(=O)OCC)C2(C(Nc3ccccc3)c3ccc(CN4CCOCC4)cc3)C=CC1O2 (stereo not drawn) [Compound 659]
SUMO: ++

SMILES: CCNC(=O)C1=C(C(=O)NCC)C2(C(Cc3ccccc3Cl)Nc3ccccc3)C=CC1O2 (stereo not drawn) [Compound 662]
SUMO: +

SMILES: COC(=O)C1=C(C(=O)OC)C2(C(Nc3ccccc3)c3cc4ccccc4nc3Cl)C=CC1O2 (stereo not drawn) [Compound 671]
SUMO: ++

SMILES: COC(=O)C1=C(C(=O)OC)C2(C(Cc3ccccc3Cl)Nc3cccc(Oc4ccccc4)c3)C=CC1O2 (stereo not drawn) [Compound 672]
SUMO: ++

SMILES: COC(=O)C1=C(C(=O)OC)C2(C(Cc3ccccc3Cl)Nc3cccc(OCc4ccccc4)c3)C=CC1O2 (stereo not drawn) [Compound 674]
SUMO: ++

SMILES: COC(=O)C1=C(C(=O)OC)C2(C(Nc3ccccc3)c3ccc4nc(Cl)ccc4c3)C=CC1O2 (stereo not drawn) [Compound 675]
SUMO: ++

SMILES: COC(=O)C1=C(C(=O)OC)C2(C(Cc3ccc(CC4CCOCC4)cc3)Nc3ccccc3)C=CC1O2 (stereo not drawn) [Compound 676]
SUMO: ++

SMILES: COC(=O)C1=C(C(=O)OC)C2(C(Cc3ccc(-c4ccccc4)cc3)Nc3ccccc3)C=CC1O2 (stereo not drawn) [Compound 677]
SUMO: ++

SMILES: COC(=O)C1=C(C(=O)OC)C2(C(Cc3ccccc3Cl)Nc3ccc(Oc4ccccc4)cc3)C=CC1O2 (stereo not drawn) [Compound 678]
SUMO: +

SMILES: COC(=O)C1=C(C(=O)OC)C2(C(Cc3ccc(C4CCOCC4)cc3)Nc3ccccc3)C=CC1O2 (stereo not drawn) [Compound 681]
SUMO: ++

SMILES: COC(=O)C1=C(C(=O)OC)C2(C(Cc3ccc(Nc4ccccc4)cc3)Nc3ccccc3)C=CC1O2 (stereo not drawn) [Compound 683]
SUMO: +

SMILES: COC(=O)C1=C(C(=O)OC)C2(C(Cc3ccccc3Cl)Oc3ccccc3)C=CC1O2 (stereo not drawn) [Compound 687]
SUMO: +

SMILES: COC(=O)C1=C(C(=O)NCCN(C)C)C2C=CC1(C(Cc1ccccc1Cl)Nc1ccc(F)cc1)O2 (stereo not drawn) [Compound 688]
SUMO: +++

SMILES: COC(=O)C1=C(C(=O)OC)C2(C(Cc3ccccc3Cl)Nc3ccccc3)CCC1O2 (stereo not drawn) [Compound 689]
SUMO: +

SMILES: COC(=O)C1=C(C(=O)NCCN(C)C)C2CCC1(C(Cc1ccccc1Cl)Nc1ccccc1)O2 (stereo not drawn) [Compound 691]
SUMO: ++

SMILES: COC(=O)C1=C(C(=O)Nc2ccc(C)c(F)c2)C2CCC1(C(Cc1ccccc1Cl)Nc1ccccc1)O2 (stereo not drawn) [Compound 692]
SUMO: +

SMILES: COC(=O)C1=C(C(=O)OC)C2(C(Cc3ccccc3Cl)N[S@+]([O-])C(C)(C)C)CCC1O2 (stereo partly drawn) [Compound 694]
SUMO: ++

SMILES: COC(=O)C1=C(C(=O)OC)C2(C(Cc3ccccc3)Nc3ccccc3)C=CC1(c1ccccc1)O2 (stereo not drawn) [Compound 696]
SUMO: +

Results, then the compound that gave them:

SUMO: +++
SMILES: COC(=O)C1=C(C(=O)OC)C2(C(Cc3ccc(C)cc3)Nc3ccccc3)C=CC1O2 (stereo not drawn) [Compound 627]

SUMO: +++
SMILES: COC(=O)C1=C(C(=O)OC)C2(C(Cc3ccc4ccccc4c3)Nc3ccccc3)C=CC1O2 (stereo not drawn) [Compound 630]

SUMO: +++
SMILES: COC(=O)C1=C(C(=O)OC)C2(C(Cc3ccc(OC)cc3)Nc3ccccc3)C=CC1O2 (stereo not drawn) [Compound 633]

SUMO: ++
SMILES: COC(=O)C1=C(C(=O)OC)C2(C(Cc3cccc4ccccc34)Nc3ccccc3)C=CC1O2 (stereo not drawn) [Compound 635]

SUMO: +++
SMILES: COC(=O)C1=C(C(=O)OC)C2(C(Cc3cccc(OC)c3)Nc3ccccc3)C=CC1O2 (stereo not drawn) [Compound 636]

SUMO: ++
SMILES: COC(=O)C1=C(C(=O)OC)C2(C(Cc3ccc(F)cc3F)Nc3ccccc3)C=CC1O2 (stereo not drawn) [Compound 639]

SUMO: +++
SMILES: COC(=O)C1=C(C(=O)OC)C2(C(Cc3ccccc3Cl)Nc3ccccc3)C=CC1O2 (stereo not drawn) [Compound 640]

SUMO: +++
SMILES: COC(=O)C1=C(C(=O)OC)C2(C(Cc3ccc(Cl)cc3Cl)Nc3ccccc3)C=CC1O2 (stereo not drawn) [Compound 641]

SUMO: +++
SMILES: COC(=O)C1=C(C(=O)OC)C2(C(Cc3ccc(Cl)c(Cl)c3)Nc3ccccc3)C=CC1O2 (stereo not drawn) [Compound 642]

SUMO: ++
SMILES: COC(=O)C1=C(C(=O)OC)C2(C(Cc3ccc(C#N)cc3)Nc3ccccc3)C=CC1O2 (stereo not drawn) [Compound 643]

SUMO: ++
SMILES: CCOc1ccc(CC(Nc2ccccc2)C23C=CC(O2)C(C(=O)OC)=C3C(=O)OC)cc1 (stereo not drawn) [Compound 644]

SUMO: ++
SMILES: COC(=O)C1=C(C(=O)OC)C2(C(Cc3ccc(OC(F)(F)F)cc3)Nc3ccccc3)C=CC1O2 (stereo not drawn) [Compound 647]

SUMO: ++
SMILES: COC(=O)C1=C(C(=O)OC)C2(C(Cc3ccccc3C)Nc3ccccc3)C=CC1O2 (stereo not drawn) [Compound 648]

SUMO: ++
SMILES: COC(=O)C1=C(C(=O)OC)C2(C(Cc3ccc(Cl)nc3)Nc3ccccc3)C=CC1O2 (stereo not drawn) [Compound 649]

SUMO: ++
SMILES: COC(=O)C1=C(C(=O)OC)C2(C(Cc3ccc(OC(C)C)cc3)Nc3ccccc3)C=CC1O2 (stereo not drawn) [Compound 650]

SUMO: ++
SMILES: COC(=O)C1=C(C(=O)OC)C2(C(Cc3ccc(Br)cc3)Nc3ccccc3)C=CC1O2 (stereo not drawn) [Compound 652]

SUMO: ++
SMILES: CCc1ccc(CC(Nc2ccccc2)C23C=CC(O2)C(C(=O)OC)=C3C(=O)OC)cc1 (stereo not drawn) [Compound 655]

SUMO: ++
SMILES: COC(=O)C1=C(C(=O)OC)C2(C(Cc3ccc(CC(C)C)cc3)Nc3ccccc3)C=CC1O2 (stereo not drawn) [Compound 656]

SUMO: ++
SMILES: COC(=O)C1=C(C(=O)OC)C2(C(Cc3c(Cl)cccc3Cl)Nc3ccccc3)C=CC1O2 (stereo not drawn) [Compound 657]

SUMO: ++
SMILES: COC(=O)C1=C(C(=O)OC)C2(C(Cc3ccccc3C(F)(F)F)Nc3ccccc3)C=CC1O2 (stereo not drawn) [Compound 658]

SUMO: ++
SMILES: COC(=O)C1=C(C(=O)OC)C2(C(Cc3ccccc3C#N)Nc3ccccc3)C=CC1O2 (stereo not drawn) [Compound 660]

SUMO: ++
SMILES: COC(=O)C1=C(C(=O)OC)C2(C(Cc3cccc(Cl)c3)Nc3ccccc3)C=CC1O2 (stereo not drawn) [Compound 663]

SUMO: ++
SMILES: COC(=O)C1=C(C(=O)OC)C2(C(Cc3ccc(CCO)cc3)Nc3ccccc3)C=CC1O2 (stereo not drawn) [Compound 664]

SUMO: ++
SMILES: CNC(=O)Cc1ccc(CC(Nc2ccccc2)C23C=CC(O2)C(C(=O)OC)=C3C(=O)OC)cc1 (stereo not drawn) [Compound 665]

SUMO: ++
SMILES: COC(=O)C1=C(C(=O)OC)C2(C(Cc3ccccc3Br)Nc3ccccc3)C=CC1O2 (stereo not drawn) [Compound 667]

SUMO: ++
SMILES: COC(=O)C1=C(C(=O)OC)C2(C(Cc3cccnc3Cl)Nc3ccccc3)C=CC1O2 (stereo not drawn) [Compound 668]

SUMO: ++
SMILES: CCOc1cccc(NC(Cc2ccccc2)C23C=CC(O2)C(C(=O)OC)=C3C(=O)OC)c1 (stereo not drawn) [Compound 669]

SUMO: ++
SMILES: COC(=O)C1=C(C(=O)OC)C2(C(Cc3ccc(C(C)C)cc3)Nc3ccccc3)C=CC1O2 (stereo not drawn) [Compound 670]

SUMO: ++
SMILES: COC(=O)C1=C(C(=O)OC)C2(C(Cc3ccccc3Cl)Nc3ccc(F)cc3)C=CC1O2 (stereo not drawn) [Compound 673]

SUMO: +
SMILES: COC(=O)C1=C(C(=O)OC)C2(C(Cc3cccc(-c4ccccc4)c3)Nc3ccccc3)C=CC1O2 (stereo not drawn) [Compound 682]

SUMO: +
SMILES: COC(=O)C1=C(C(=O)OC)C2(C(Cc3ccc(NC(C)C)cc3)Nc3ccccc3)C=CC1O2 (stereo not drawn) [Compound 684]

SUMO: ++
SMILES: CNc1ccc(CC(Nc2ccccc2)C23C=CC(O2)C(C(=O)OC)=C3C(=O)OC)cc1 (stereo not drawn) [Compound 685]

SUMO: ++
SMILES: COC(=O)C1=C(C(=O)OC)C2(C(Cc3ccc(C4CC4)cc3)Nc3ccccc3)C=CC1O2 (stereo not drawn) [Compound 693]
